# From PubChem BioAssay (NCI)
#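 Following 48 hours of exposure in 96-well plates, responses at five concentrations were used to interpolate endpoints linearly. TGI marks complete inhibition of growth.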
# Columns and labels:
# Test in all cases: NCI tumour cell line growth inhibition, 48 h
# SK-OV-3 ovarian = system: SK-OV-3 ovarian
# UACC-257 melanoma = system: UACC-257 melanoma
# HCT-116 colon = system: HCT-116 colon
# UACC-62 melanoma = system: UACC-62 melanoma
# NCI-H522 lung = system: NCI-H522 lung
# K-562 leukemia = system: K-562 leukemia
# SN12C renal = system: SN12C renal
# SR leukemia = system: SR leukemia
# SF-295 CNS = system: SF-295 CNS
# PC-3 prostate = system: PC-3 prostate
# U251 CNS = system: U251 CNS
SMILES,TGI (SK-OV-3 ovarian) [µM],TGI (UACC-257 melanoma) [µM],TGI (HCT-116 colon) [µM],TGI (UACC-62 melanoma) [µM],TGI (NCI-H522 lung) [µM],TGI (K-562 leukemia) [µM],TGI (SN12C renal) [µM],TGI (SR leukemia) [µM],TGI (SF-295 CNS) [µM],TGI (PC-3 prostate) [µM],TGI (U251 CNS) [µM]
O=C(/C=C/c1ccccc1)Oc1ccc(C(=O)/C=C/c2ccccc2)cc1,> 31.6,20.3,14.6,17.7,23.6,> 29.8,15.2,6.82,24.4,> 64.9,–
O=C(O)c1ccccc1CC(Cc1ccc2c(c1)CCC2)C(=O)O (stereo not drawn),> 100,> 100,> 100,–,> 100,> 100,> 100,> 100,> 100,> 100,> 100
O=C(CCn1ccnc1[N+](=O)[O-])NCCCn1ccnc1[N+](=O)[O-],> 100,> 100,> 100,> 100,> 100,> 100,> 100,> 100,> 100,> 100,> 100
CN1CCOC1c1ccccc1O (stereo not drawn),> 100,> 100,> 100,> 100,> 100,> 100,–,> 100,> 100,> 100,> 100
O=C(O)CN1CCNCCN(CC(=O)O)CCN(CC(=O)O)CCNCC1,> 100,> 100,> 100,> 100,> 100,> 100,> 100,> 100,> 100,> 100,> 100
N#CC(C#N)=C1SC(=Nc2ccccc2)C(=Nc2ccccc2)N1c1ccccc1,> 100,30,32.7,14.2,4.08,7.12,77.2,> 26.2,> 76.6,25.1,41
Cc1cc(/N=C/c2ccc(N(C)C)cc2)n(-c2ccccc2)n1,> 100,> 100,> 100,> 100,> 100,> 100,> 100,> 100,> 100,> 100,> 100
CSC1=N/C(=C\c2ccc(C)cc2)C(=O)N1CN1CCCCC1,> 100,–,> 100,> 100,> 100,> 100,> 100,> 100,> 100,> 100,> 100
CCOC(=O)c1cccc(N=Nc2nc[nH]c2/C=C/C(=O)OC)c1,> 100,60.4,> 100,> 100,> 100,> 100,68.1,12,> 100,> 100,> 100
C/C(=N\N=C1/C(=O)OC(c2ccccc2)=C1C(=O)c1ccccc1)c1ccc([N+](=O)[O-])cc1,> 100,> 100,> 100,> 100,83.5,> 100,> 100,34.6,> 100,> 100,> 100
O=[N+]([O-])C(=C(Nc1cccc2cccnc12)Nc1cccc2cccnc12)C(Cl)=C(Cl)Cl,> 100,–,> 100,> 100,56.3,> 100,> 95.7,> 100,> 100,> 100,> 100
COC1=CC(=O)c2c(c(-c3nc(C)cs3)cn2C)C1=O,> 100,4.44,30.8,7.74,7.26,20.6,27,> 50.8,9.72,> 55.4,> 100
Cc1cccc(C)c1NC(=O)C(Cc1c[nH]c2ccccc12)NC(=O)OCc1ccccc1 (stereo not drawn),65.1,34,> 100,41.3,72.7,> 100,80.7,85.7,38.9,28.8,47.2
CC(=O)NC1C(OCc2ccccc2)OC(CO)C(O)C1OCC(=O)N[C@@H](C)C(=O)N[C@H](CCC(=O)NCCCNc1c2ccccc2nc2cccc([N+](=O)[O-])c12)C(N)=O (stereo partly drawn),0.99,0.177,0.034,0.0601,0.0383,> 39.8,0.327,46.7,1.33,0.493,4.46
COc1ccc(N2C(=O)CC(=O)N(NC(=O)C(C)Oc3ccccc3C)C2=S)cc1 (stereo not drawn),> 100,> 100,> 100,> 100,> 100,> 100,> 100,> 100,> 100,> 100,> 100
NCCCN1c2ccccc2Sc2ccc(Cl)cc21,> 10,> 10,7.03,> 10,> 5.15,> 8.41,> 10,> 8.89,> 10,> 10,> 10
CCCCCCCCCCCC[S+](C)C,21.7,17.4,20.8,21.9,15.6,49.4,15.3,> 100,16.6,9.92,31.7
CC1(C)OC[C@@H](O)[C@H](C#N)CO1,> 100,> 100,> 100,> 100,> 100,> 100,> 100,> 100,> 100,> 100,> 100
O=C(O)CCNc1ncnc2nc[nH]c12,> 100,> 100,> 100,> 100,> 100,> 100,> 100,> 100,> 100,> 100,> 100

SMILES,TGI (SK-OV-3 ovarian) [µM],TGI (UACC-257 melanoma) [µM],TGI (HCT-116 colon) [µM],TGI (UACC-62 melanoma) [µM],TGI (NCI-H522 lung) [µM],TGI (K-562 leukemia) [µM],TGI (SN12C renal) [µM],TGI (SR leukemia) [µM],TGI (SF-295 CNS) [µM],TGI (PC-3 prostate) [µM],TGI (U251 CNS) [µM]
Cc1c2cc[n+](C)c(C)c2cc2c1[nH]c1ccccc12,89.2,65.8,> 86.1,48.8,18.2,61.3,8.54,> 100,32.3,> 100,8.41
Clc1ccc(-c2nnc3sc4nc5ccccc5c-4nn23)c(Cl)c1,> 100,> 100,> 100,> 100,> 100,> 100,> 100,> 100,> 100,> 100,> 100
Cc1ccc(C2=CC(=O)OC(C[P+](c3ccccc3)(c3ccccc3)c3ccccc3)(c3ccccc3)O2)cc1 (stereo not drawn),32.4,30.8,29.2,30.5,26,> 100,57.7,61.2,45.5,49,34.8
Cc1nc(C)c(N2CCN([N+](=O)[O-])CC2)c(=O)[nH]1,> 100,> 100,> 100,> 100,> 100,> 100,> 100,> 100,> 100,> 100,> 100
NS(=O)(=O)c1ccc(NC(=S)/N=C/C2=C(O)c3ccccc3C2=O)cc1,> 100,> 100,> 100,> 100,> 100,> 100,> 100,> 100,> 100,> 100,> 100
COc1cc(O)c2c(c1)C(=O)c1cc3c(c(O)c1C2=O)C(OC1OC(C)C(OC)C(O)C1OC)C(OC)C(C)(O)C3=O (stereo not drawn),97,16.2,14.6,–,3.62,19.4,–,9.16,18.3,14.1,22.8
Cn1c(SCc2ccc(F)cc2)nnc1C12CC3CC(CC(C3)C1)C2,> 100,91.7,> 100,> 100,> 100,> 100,> 100,93.9,> 100,> 100,> 100
Cc1c(O)nc(-n2[nH]c3c(c2=O)CCCC3)[nH]c1=O,> 100,> 100,> 100,> 100,> 100,> 100,> 100,> 100,> 100,> 100,> 100
O=c1[nH][nH]c(=O)n1CCCCCCn1c(=O)[nH][nH]c1=O,> 100,> 100,> 100,> 100,> 100,> 100,> 100,> 100,–,> 100,> 100
CCN1CN(c2ccccc2)C2(CCN(CC3COc4ccccc4O3)CC2)C1=O (stereo not drawn),> 100,> 100,43.7,73.4,40.8,> 100,> 100,> 100,> 100,79.2,> 100
COC(=O)/C=C\C(C#N)(C#N)N=Cc1ccc(C)cc1,31.6,12.6,3.57,28.4,1.64,16.7,29.8,3.8,51,15.2,27.7
C=C1C(=O)CC2C1CC(=O)/C(C)=C/CCC(C)(O)C2O (stereo not drawn),49.8,12.6,6.92,14.8,3.04,15.7,5.32,> 37.6,47.8,23.3,40.6
Cc1nn(-c2ccccc2)c2c1C(c1cc3ccccc3nc1Cl)NC(=O)N2 (stereo not drawn),49.1,85.9,84.6,42.5,35.4,> 100,67.5,> 100,55.8,43.7,38.2
OC[C@H]1O[C@@H]2O[C@@](COCc3ccccc3)([C@H](OCc3ccccc3)[C@H]2O)[C@@H]1OCc1ccccc1,27.9,32.2,30.1,27.7,31.6,25.2,29.2,5.83,28.8,28,29.5
O=S(=O)(O)C(CO)c1ccccc1 (stereo not drawn) (tested in a mixture with another compound),> 100,> 100,> 100,> 100,> 100,> 100,> 100,> 100,> 100,> 100,> 100
C=C(C(=O)OCC)C(=O)OCC,> 100,> 100,> 100,> 100,> 100,> 100,> 100,> 100,> 100,> 100,> 100
Oc1cc(Cl)cc2cccnc12,> 100,> 29.9,> 23.3,7.49,5.32,2.66,> 100,4.27,15.9,> 100,> 47.9
S=c1c2cn[nH]c2nc2scc(-c3ccc(Cl)cc3)n12,> 100,> 100,27.9,> 100,46.9,> 100,32,28.9,–,29.8,25.8
